Measurements: patent US20180228795A1, “COMBINATION THERAPY FOR CANCER” (Eli Lilly and Company, priority 2015, published 2018)

Columns and labels:
Test in all cases: Antitumor effects in PDX mouse model of TNBC
Type in all cases: in vivo
[1] = test system: PDX TNBC Model ST430; conditions: A 10 mg/kg SC BID 3 days on/4 off ×4, B 7.5 mg/kg PO BID×28, versus vehicle
Source text: (§1) Establish PDX tumor models from viable human tumor tissue and serially passage in immunocompromised female mice a limited number of times. Using tumor fragments harvested from donor host animals, perform unilateral subcutaneous implants from a specific passage of the PDX tumor model on the flanks of the experimental animals. When tumor volumes reach approximately 150-250 mm^3 in size, randomize the animals by treatment arm by randomization techniques well known in the art and place into their respective treatment groups using 1 animal per treatment group (3 animals in an untreated group). Formulate CHK1 inhibitor, 5-(5-(2-(3-aminopropoxy)-6-methoxyphenyl)-1H-pyrazol-3-ylamino)pyrazine-2-carbonitrile methanesulfonate hydrate, (Compound A) every 14 days in 20% captisol (dissolved in water) and administer subcutaneously twice daily at a dose of 10 mg/kg on days 1/2/3 of a weekly cycle for 4 weeks (SC, BID [3 days on/4 off]×4). Formulate the PI3K/mTOR dual inhibitor, 8-[5-(1-hydroxy-1-methylethyl)pyridin-3-yl]-1-[(2S)-2-methoxypropyl]-3-methyl-1,3-dihydro-2H-imidazo[4,5-c]quinolin-2-one, (Compound B) weekly in 1% (HEC)/0.25% Tween 80 (Polysorbate 80)/0.05% Dow-Corning Antifoam 1510-US and administer by oral gavage twice-daily for 28 days (PO, BID×28) at a dose of 7.5 mg/kg. Dose combination treatment animals with both compounds according to the schedule described above for monotherapy, and dose vehicle treatment animals with vehicle according to the schedule for Compound B.
(§2) Test the combination of Compound A and Compound B, as well as their respective monotherapies, in 40 PDX models (Table 1) of TNBC. Assess antitumor efficacy of the treatment groups by measuring tumor volume via caliper measurements twice a week during the course of the study. Measure body weight twice weekly during the course of the study as a general indicator of tolerability.
(§3) Capture tumor size and body weight twice per week. Estimate tumor volume (V) by using the formula: V=(π/6)×L×W^2 where L=larger of measured diameter and W=smaller perpendicular diameter. Calculate relative tumor volume using the tumor volume measurement taken nearest to the last day of dosing for each animal (T), divided by the baseline tumor volume for that animal (T0), which is the volume recorded on or just prior to the first day of dosing, Y=T/T0. Calculate % ΔT/ΔC values using the formula % ΔT/ΔC=100(YT−1)/(YC−1), whereby YT or YC=geometric mean relative volume of the compound treated group or the control group, respectively. Tumor growth inhibition is observed in those instances where the calculated values for % ΔT/ΔC are less than 100% whereby greater inhibition results in smaller % ΔT/ΔC values. If ΔT<0, then a tumor regression value is calculated instead of % ΔT/ΔC whereby % Regression=100(YT−1). Note that negative values indicate regression. We collectively refer to % ΔT/ΔC and % Regression as % Response.
(§4) Examine relative tumor volume (final volume divided by baseline volume) on the last day of treatment or the last day on which data from all three treatment groups and vehicle is available, if it is earlier than the last day of treatment and at least 14 days after baseline. Expected additive relative volume is determined using the Bliss method (Bliss, C. I., Ann Appl Biol, 1939; 26(3):585-615). Specifically, denoting Y=relative volume, YExp=(Y1*Y2)/YV, where YExp=expected additive relative volume, Y1 and Y2 are the relative volumes in the single agent groups (Compound A and Compound B), and YV is the relative volume in the vehicle group. A range of additivity is defined around the expected additive relative volume via upper and lower limits as follows:
(§5) Yupper=max(2*YExp,YExp+0.2)
(§6) Ylower=min(YExp/2,YExp−0.2)
(§7) The upper limit of the range is the larger of 2-fold above or 20% above the expected additive relative volume, and the lower limit is the smaller of 2-fold below or 20% below the expected additive relative volume. […]

[2] = test system: PDX TNBC Model CTG-1350; conditions: PDX model CTG-1350; A 10 mg/kg SC BID 3 days on/4 off ×4; B 7.5 mg/kg PO BID×28; versus vehicle
Source text: as §1, §2, §3, §4, §5, §6, §7

[3] = test system: PDX TNBC Model ST319; conditions: A 10 mg/kg SC BID 3 days on/4 off ×4, B 7.5 mg/kg PO BID×28, versus vehicle
Source text: as §1, §2, §3, §4, §5, §6, §7

[4] = test system: PDX TNBC Model CTG-0670; conditions: PDX model CTG-0670; A 10 mg/kg SC BID 3 days on/4 off ×4; B 7.5 mg/kg PO BID×28; versus vehicle
Source text: as §1, §2, §3, §4, §5, §6, §7

[5] = test system: PDX TNBC Model ST996; conditions: A 10 mg/kg SC BID 3 days on/4 off ×4, B 7.5 mg/kg PO BID×28, versus vehicle
Source text: as §1, §2, §3, §4, §5, §6, §7

[6] = test system: PDX TNBC Model CTG-1340; conditions: PDX model CTG-1340; A 10 mg/kg SC BID 3 days on/4 off ×4; B 7.5 mg/kg PO BID×28; versus vehicle
Source text: as §1, §2, §3, §4, §5, §6, §7

[7] = test system: PDX TNBC Model MAXF 1384; conditions: PDX model MAXF 1384; A 10 mg/kg SC BID 3 days on/4 off ×4; B 7.5 mg/kg PO BID×28; versus vehicle
Source text: as §1, §2, §3, §4, §5, §6, §7

[8] = test system: PDX TNBC Model MAXF 508; conditions: PDX model MAXF 508; A 10 mg/kg SC BID 3 days on/4 off ×4; B 7.5 mg/kg PO BID×28; versus vehicle
Source text: as §1, §2, §3, §4, §5, §6, §7

[9] = test system: PDX TNBC Model MAXF 857; conditions: PDX model MAXF 857; A 10 mg/kg SC BID 3 days on/4 off ×4; B 7.5 mg/kg PO BID×28; versus vehicle
Source text: as §1, §2, §3, §4, §5, §6, §7

[10] = test system: PDX TNBC Model ST035; conditions: A 10 mg/kg SC BID 3 days on/4 off ×4, B 7.5 mg/kg PO BID×28, versus vehicle
Source text: as §1, §2, §3, §4, §5, §6, §7

[11] = test system: PDX TNBC Model CTG-0986; conditions: PDX model CTG-0986; A 10 mg/kg SC BID 3 days on/4 off ×4; B 7.5 mg/kg PO BID×28; versus vehicle
Source text: as §1, §2, §3, §4, §5, §6, §7

[12] = test system: PDX TNBC Model ST1283; conditions: A 10 mg/kg SC BID 3 days on/4 off ×4, B 7.5 mg/kg PO BID×28, versus vehicle
Source text: as §1, §2, §3, §4, §5, §6, §7

[13] = test system: PDX TNBC Model ST821; conditions: A 10 mg/kg SC BID 3 days on/4 off ×4, B 7.5 mg/kg PO BID×28, versus vehicle
Source text: as §1, §2, §3, §4, §5, §6, §7

[14] = test system: PDX TNBC Model CTG-1106; conditions: PDX model CTG-1106; A 10 mg/kg SC BID 3 days on/4 off ×4; B 7.5 mg/kg PO BID×28; versus vehicle
Source text: as §1, §2, §3, §4, §5, §6, §7

COc1cccc(OCCCN)c1-c1cc(Nc2cnc(C#N)cn2)n[nH]1.CS(=O)(=O)O [Compound A, 5-(5-(2-(3-aminopropoxy)-6-methoxyphenyl)-1H-pyrazol-3-ylamino)pyrazine-2-carbonitrile methanesulfonate hydrate]
% Rsp. (% ΔT/ΔC or % Regression) [1]: 80.9%
% Rsp. (% ΔT/ΔC or % Regression) [2]: 20.3%
% Rsp. (% ΔT/ΔC or % Regression) [3]: 8.9%
% Rsp. (% ΔT/ΔC or % Regression) [4]: 112.8%
% Rsp. (% ΔT/ΔC or % Regression) [5]: 0.7%
% Rsp. (% ΔT/ΔC or % Regression) [6]: 41.0%
% Rsp. (% ΔT/ΔC or % Regression) [7]: 52.8%
% Rsp. (% ΔT/ΔC or % Regression) [8]: −100.0%
% Rsp. (% ΔT/ΔC or % Regression) [9]: 32.4%
% Rsp. (% ΔT/ΔC or % Regression) [10]: 2.1%
% Rsp. (% ΔT/ΔC or % Regression) [11]: 32.2%
% Rsp. (% ΔT/ΔC or % Regression) [12]: 0.0%
% Rsp. (% ΔT/ΔC or % Regression) [13]: −81.9%
% Rsp. (% ΔT/ΔC or % Regression) [14]: −39.0%

CO[C@@H](C)Cn1c(=O)n(C)c2cnc3ccc(-c4cncc(C(C)(C)O)c4)cc3c21 [Compound B, 8-[5-(1-hydroxy-1-methylethyl)pyridin-3-yl]-1-[(2S)-2-methoxypropyl]-3-methyl-1,3-dihydro-2H-imidazo[4,5-c]quinolin-2-one]
% Rsp. (% ΔT/ΔC or % Regression) [1]: 59.2%
% Rsp. (% ΔT/ΔC or % Regression) [2]: 7.7%
% Rsp. (% ΔT/ΔC or % Regression) [3]: 40.3%
% Rsp. (% ΔT/ΔC or % Regression) [4]: 117.6%
% Rsp. (% ΔT/ΔC or % Regression) [5]: 23.5%
% Rsp. (% ΔT/ΔC or % Regression) [6]: 17.1%
% Rsp. (% ΔT/ΔC or % Regression) [7]: 60.3%
% Rsp. (% ΔT/ΔC or % Regression) [8]: 41.3%
% Rsp. (% ΔT/ΔC or % Regression) [9]: 72.7%
% Rsp. (% ΔT/ΔC or % Regression) [10]: 54.0%
% Rsp. (% ΔT/ΔC or % Regression) [11]: 54.6%
% Rsp. (% ΔT/ΔC or % Regression) [12]: 23.3%
% Rsp. (% ΔT/ΔC or % Regression) [13]: 78.5%
% Rsp. (% ΔT/ΔC or % Regression) [14]: −31.0%
